Each block holds one compound with its values, some of them ahead of it.
How the values were obtained:
IPF patients = details: 26-week clinical trial in IPF patients; cited from earlier work
plasma histamine = assay: LPA challenge with plasma histamine evaluation (acute in vivo histamine assay); details: 1 mg/kg dose
Description: LPA Challenge with Plasma Histamine Evaluation.
Compound is dosed orally p.o. 2 hours to CD-1 female mice prior to the LPA challenge. The mice are then dosed via tail vein (IV) with 0.15 mL of LPA in 0.1% BSA/PBS (2 μg/μL). Exactly 2 minutes following the LPA challenge, the mice are euthanized by decapitation and the trunk blood is collected. These samples are collectively centrifuged and individual 75 μL samples are frozen at −20° C. until the time of the histamine assay.
The plasma histamine analysis was run by standard EIA (Enzyme Immunoassay) methods. Plasma samples were thawed and diluted 1:30 in 0.1% BSA in PBS. The EIA protocol for histamine analysis as outlined by the manufacturer was followed (Histamine EIA, Oxford Biomedical Research, EA #31).
The LPA used in the assay is formulated as follows: LPA (1-oleoyl-2-hydroxy-sn-glycero-3-phosphate (sodium salt), 857130P, Avanti Polar Lipids) is prepared in 0.1% BSA/PBS for total concentration of 2 μg/μL, 13 mg of LPA is weighed and 6.5 mL 0.1% BSA added, vortexed and sonicated for −1 hour until a clear solution is achieved.

human LPA1 = target: T1, human LPA1 (Homo sapiens, UniProt Q92633); assay: LPA1 functional antagonist assay (calcium flux); type: cell-based; details: CHO cells overexpressing human LPA1; calcium flux induced by 10 nM LPA; read-out: hLPA1 IC50
T1 construct: expressed in transfected cells; host or cells: Chinese hamster ovary (CHO) cells
T1 sequence (Q92633 whole entry): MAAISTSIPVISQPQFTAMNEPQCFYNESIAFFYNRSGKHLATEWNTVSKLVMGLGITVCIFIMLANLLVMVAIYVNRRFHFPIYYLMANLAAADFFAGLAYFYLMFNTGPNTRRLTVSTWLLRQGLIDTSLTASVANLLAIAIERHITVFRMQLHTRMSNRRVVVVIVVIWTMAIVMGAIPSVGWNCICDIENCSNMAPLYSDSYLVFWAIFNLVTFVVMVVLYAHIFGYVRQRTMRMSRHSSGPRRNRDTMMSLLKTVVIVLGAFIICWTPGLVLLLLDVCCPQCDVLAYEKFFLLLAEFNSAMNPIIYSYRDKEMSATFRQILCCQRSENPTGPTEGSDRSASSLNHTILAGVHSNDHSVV
Description: The effectiveness of compounds of the present invention as LPA1 inhibitors can be determined in an LPA1 functional antagonist assay as follows:
The cells were then equilibrated to room temperature for 30 minutes before the assay. […] IC50 values were determined by fitting data to a 4-parameter logistic equation (GraphPad Prism, San Diego Calif.).

nerve-injured mice = details: pretreatment; cited from earlier work
[1] = test system: mouse epithelial renal cell line, MCT; details: LPA treatment of MCT cells, co-treatment; cited from earlier work
[2] = test system: human foetal lung fibroblasts; details: induced by BAL obtained from IPF patients; cited from earlier work
[3] = test system: highly peritoneal metastatic pancreatic cancer cell line; details: LPA-induced and ascites-induced; cited from earlier work
UUO mice = details: cited from earlier work
[4] = test system: pancreatic cancer cell lines; details: in response to LPA and peritoneal fluid (ascites) from pancreatic cancer patients; cited from earlier work

Compound: Cc1noc(-c2ccc(-c3ccc(C4(C(=O)O)CC4)cc3)cc2)c1NC(=O)O[C@H](C)c1ccccc1 [BMS-986020]
rate of FVC (forced vital capacity) decline (IPF patients): significantly reduce

IC50 (human LPA1): 0.009 µM
Compound: Cc1nc(-c2nnn(C)c2CNC(=O)OCc2ccccc2)ccc1O[C@H]1CCC[C@H](C(=O)O)C1 [Example 34, (1S,3S)-3-((6-(5-((((benzyloxy)carbonyl)amino)methyl)-1-methyl-1H-1,2,3-triazol-4-yl)-2-methylpyridin-3-yl)oxy)cyclohexane-1-carboxylic acid]
acute in vivo histamine assay in CD-1 mice: % histamine (plasma histamine): −96%

IC50 (human LPA1): 0.138 µM
Compound: Cc1nc(-c2nnn(C)c2CCNC(=O)Cc2ccccc2)ccc1O[C@H]1CCC[C@H](C(=O)O)C1 [Example 238, (1S,3S)-3-((2-methyl-6-(1-methyl-5-(2-(2-phenylacetamido)ethyl)-1H-1,2,3-triazol-4-yl)pyridin-3-yl)oxy)cyclohexane-1-carboxylic acid]

IC50 (human LPA1): 1.01 µM
Compound: Cc1nc(-c2nnn(C)c2CCNC(=O)CCC(C)C)ccc1O[C@H]1CCC[C@H](C(=O)O)C1 [Example 240]

Compound: C[C@@H](N)[C@H]1CC[C@H](C(=O)Nc2ccncc2)CC1 [Example Y-27632]
allodynia and hyperalgesia (nerve-injured mice): completely abolished

Compound: Cc1noc(-c2ccc(CSCCC(=O)O)cc2)c1NC(=O)OC(C)c1ccccc1Cl (centres unmarked) [Ki16425]
induction of CTGF expression [1]: almost completely suppressed
chemotaxis of human foetal lung fibroblasts [2]: blocked
invasion activity [3]: blocked
development of renal fibrosis (UUO mice): closely resembled the profile of LPA1 (−/−) mice
in vitro migration [4]: effectively blocked
